The supplement of paper PMC4977894
± gives the standard deviation of the averaged measurements.

How the values were obtained:
[1] = tested on: Homo sapiens (human subject panel, olfactory perception); assay: perceived odor pleasantness rating (rating 0-100); higher = more pleasant
Method in brief: (§1)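 55 healthy human subjects (aged 18–50; six lowest performers excluded) sniffed 1 mL of each molecule diluted in paraffin oil, at high and low concentrations, in randomized order across ten visits of 100 stimuli. Subjects who reported smelling the stimulus rated it on a computerized slider starting at 50, which had to be moved; positions were converted to a 0–100 scale. Familiarity, intensity and pleasantness ratings are averages over subjects.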

[2] = tested on: Homo sapiens (human subject panel, olfactory perception); assay: perceived odor familiarity rating (rating 0-100); higher = more familiar
Method in brief: as §1

[3] = tested on: Homo sapiens (human subject panel, olfactory perception); assay: perceived odor intensity rating (rating 0-100); higher = stronger perceived smell
Method in brief: as §1

[4] = odor dilution in paraffin oil: 1/1,000
[5] = odor dilution in paraffin oil: 1/100,000
[6] = odor dilution in paraffin oil: 1/10
[7] = odor dilution in paraffin oil: 1/10,000,000

| Compound | perceived odor pleasantness rating [1, 4] | perceived odor pleasantness rating [1, 5] | perceived odor familiarity rating [2, 4] | perceived odor familiarity rating [2, 5] | perceived odor intensity rating [3, 4] | perceived odor intensity rating [3, 5] | perceived odor pleasantness rating [1, 6] | perceived odor familiarity rating [2, 6] | perceived odor intensity rating [3, 6] | perceived odor pleasantness rating [1, 7] | perceived odor familiarity rating [2, 7] | perceived odor intensity rating [3, 7] |
| --- | --- | --- | --- | --- | --- | --- | --- | --- | --- | --- | --- | --- |
| CCCCCCOC(=O)CC [Hexyl propionate] | 52.1 ± 24 | 38.5 ± 22 | 43.1 ± 28 | 40.8 ± 33 | 59 ± 32 | 27.6 ± 32 |  |  |  |  |  |  |
| CC(C)=O [acetone] | 51.2 ± 24 |  | 38.8 ± 31 |  | 30 ± 29 |  | 56.6 ± 25 | 40.6 ± 28 | 37 ± 32 |  |  |  |
| CCCCC(=O)OCC [Ethyl Valerate] | 71.4 ± 26 | 73.6 ± 20 | 67.1 ± 33 | 58.9 ± 30 | 75.2 ± 22 | 50.6 ± 28 |  |  |  |  |  |  |
| CCCCC/C=C\C/C=C\CCCCCCCC(=O)O [Linoleic acid] | 31.2 ± 21 |  | 41.2 ± 27 |  | 64.8 ± 23 |  | 13.9 ± 15 | 48.7 ± 34 | 90.8 ± 13 |  |  |  |
| CSSSC [Dimethyl trisulfide (replicate)] |  | 18.4 ± 22 |  | 59.2 ± 32 |  | 80.1 ± 22 |  |  |  | 26.5 ± 23 | 50.5 ± 33 | 62.9 ± 29 |
| CCC(C)CO (stereo not given) [2-Methyl-1-butanol (replicate)] | 28 ± 26 | 44.4 ± 23 | 47.1 ± 32 | 37.1 ± 31 | 78.8 ± 18 | 36.4 ± 31 |  |  |  |  |  |  |
| C1CCNC1 [Pyrrolidine] |  | 40.7 ± 19 |  | 28.9 ± 29 |  | 26.9 ± 26 |  |  |  | 37.5 ± 22 | 37.2 ± 27 | 26.6 ± 24 |
| CC/C=C\CCOC(=O)c1ccccc1O [cis-3-Hexenyl salicylate] | 48.1 ± 26 | 49.8 ± 24 | 40.2 ± 26 | 36.8 ± 33 | 49.2 ± 30 | 9.75 ± 16 |  |  |  |  |  |  |
| CCCCCCC(=O)OCC [Ethyl heptanoate] | 62.6 ± 26 | 55.9 ± 25 | 59.4 ± 27 | 44.3 ± 29 | 69.1 ± 23 | 34.8 ± 28 |  |  |  |  |  |  |
| CNc1ccccc1C(=O)OC [Dimethyl anthranilate] | 63.1 ± 23 | 53.3 ± 26 | 53 ± 28 | 31.2 ± 29 | 44.2 ± 31 | 17.1 ± 21 |  |  |  |  |  |  |
| C=CCOC(=O)c1ccccc1N [Allyl anthranilate] | 52 ± 27 | 50.7 ± 25 | 45.9 ± 29 | 33.4 ± 26 | 55.1 ± 31 | 16.4 ± 19 |  |  |  |  |  |  |
| CCCCCCC(=O)OC [Methyl heptanoate] | 58.8 ± 25 | 53 ± 24 | 48.9 ± 33 | 39.5 ± 30 | 52.9 ± 30 | 21.7 ± 28 |  |  |  |  |  |  |
| O=C1CCCO1 [4-Hydroxybutanoic acid lactone] | 28.9 ± 19 | 46.1 ± 25 | 44.6 ± 31 | 28.2 ± 30 | 47 ± 34 | 19.9 ± 24 |  |  |  |  |  |  |
| CC1=CCC2CC1C2(C)C (stereo not drawn) [alpha-pinene] | 45.6 ± 26 | 54.4 ± 21 | 46.6 ± 31 | 41.4 ± 29 | 61.4 ± 26 | 27.9 ± 30 |  |  |  |  |  |  |
| CCCCCC(CC)OC(C)=O (stereo not given) [3-Octyl Acetate] | 59 ± 26 |  | 48.9 ± 29 |  | 39.7 ± 31 |  | 44.9 ± 31 | 51.6 ± 32 | 83.7 ± 17 |  |  |  |
| OC1CSC(O)CS1 (stereo not given) [2,5-Dihydroxy-1,4-dithiane] | 13.8 ± 22 |  | 51.5 ± 32 |  | 88.4 ± 16 |  | 16.9 ± 25 | 50.9 ± 35 | 86.4 ± 16 |  |  |  |
| COC(=O)c1ccccc1O [methyl salicylate] | 60.8 ± 26 | 56.7 ± 21 | 63.9 ± 32 | 38.1 ± 32 | 71.9 ± 22 | 16.7 ± 22 |  |  |  |  |  |  |
| CCCCC(=O)OC [Methyl valerate] | 42.4 ± 31 | 48.8 ± 28 | 55.1 ± 31 | 46.1 ± 28 | 65.2 ± 26 | 49.4 ± 30 |  |  |  |  |  |  |

| Compound | perceived odor pleasantness rating [1, 4] | perceived odor pleasantness rating [1, 5] | perceived odor familiarity rating [2, 4] | perceived odor familiarity rating [2, 5] | perceived odor intensity rating [3, 4] | perceived odor intensity rating [3, 5] | perceived odor pleasantness rating [1, 6] | perceived odor familiarity rating [2, 6] | perceived odor intensity rating [3, 6] | perceived odor pleasantness rating [1, 7] | perceived odor familiarity rating [2, 7] | perceived odor intensity rating [3, 7] |
| --- | --- | --- | --- | --- | --- | --- | --- | --- | --- | --- | --- | --- |
| O=C(Cc1ccccc1)OCc1ccccc1 [Benzyl phenylacetate] | 31 ± 26 | 47 ± 20 | 49.8 ± 32 | 37.3 ± 31 | 54.4 ± 30 | 37.4 ± 35 |  |  |  |  |  |  |
| O=C1CCCCCN1 [epsilon-Caprolactam] | 40.9 ± 26 |  | 39.4 ± 35 |  | 31.3 ± 33 |  | 46 ± 25 | 31.2 ± 28 | 30.6 ± 30 |  |  |  |
| CCOc1nccs1 [2-Ethoxythiazole] | 24.3 ± 23 | 37.6 ± 25 | 45.2 ± 30 | 42.5 ± 28 | 79.9 ± 19 | 52.7 ± 30 |  |  |  |  |  |  |
| CCCCCCCCCC1CCCC(=O)O1 (stereo not given) [delta-Tetradecalactone (replicate)] | 41.9 ± 20 | 51.2 ± 20 | 37.7 ± 24 | 26 ± 28 | 33 ± 30 | 13.9 ± 20 |  |  |  |  |  |  |
| CCCCCCCCCCO [decanol] | 38.6 ± 28 | 46.8 ± 25 | 49.6 ± 33 | 39.4 ± 32 | 66 ± 27 | 29.1 ± 24 |  |  |  |  |  |  |
| c1coc(Cn2cccc2)c1 [1-Furfurylpyrrole] | 28.7 ± 24 | 46.8 ± 19 | 40.7 ± 32 | 34.3 ± 25 | 76.3 ± 22 | 30.9 ± 29 |  |  |  |  |  |  |
| Cc1cnc(C)cn1 [2,5-dimethyl pyrazine] |  | 38.5 ± 21 |  | 43.8 ± 30 |  | 50.3 ± 30 |  |  |  | 48.4 ± 24 | 37.1 ± 28 | 29.3 ± 31 |
| C=CCOC(=O)Cc1ccccc1 [Allyl phenylacetate] |  | 33 ± 27 |  | 44 ± 25 |  | 33.8 ± 29 |  |  |  | 49.8 ± 28 | 29.4 ± 16 | 25.7 ± 25 |
| CCC1OC(=O)C(O)=C1C (stereo not given) [5-Ethyl-3-hydroxy-4-methyl-2(5H)-furanone] |  | 54.4 ± 22 |  | 44.9 ± 29 |  | 36.6 ± 31 |  |  |  | 64 ± 22 | 59.7 ± 34 | 48.1 ± 32 |
| CC(C)C(=O)O [Isobutyric acid] |  | 25 ± 20 |  | 43.5 ± 31 |  | 56.8 ± 30 |  |  |  | 49 ± 27 | 39.6 ± 26 | 22.6 ± 28 |
| c1ccsc1 [Thiophene (replicate)] | 33.7 ± 27 | 36 ± 22 | 53.9 ± 31 | 42.1 ± 26 | 66.4 ± 25 | 27.6 ± 31 |  |  |  |  |  |  |
| CCC(=O)O [propionic acid (replicate)] |  | 38.7 ± 20 |  | 37.3 ± 30 |  | 38.6 ± 32 |  |  |  | 36.7 ± 25 | 44.1 ± 30 | 7.72 ± 8.4 |
| O=C(O)CC1CCCCC1 [Cyclohexaneacetic acid] | 28.8 ± 22 | 37.6 ± 23 | 46.9 ± 28 | 32.8 ± 25 | 69.9 ± 22 | 29.4 ± 30 |  |  |  |  |  |  |
| c1ccc(SSc2ccccc2)cc1 [Phenyl disulfide] | 26.6 ± 23 | 28.3 ± 25 | 47.2 ± 29 | 43.5 ± 29 | 61.2 ± 26 | 52.5 ± 30 |  |  |  |  |  |  |
| COc1ccc(COC(C)=O)cc1 [Anisyl acetate] | 69.8 ± 21 | 48.7 ± 25 | 52.8 ± 29 | 39.3 ± 30 | 59.4 ± 26 | 31.7 ± 26 |  |  |  |  |  |  |
| C1CCNCC1 [Piperidine] | 13.2 ± 18 | 48.2 ± 24 | 53.6 ± 36 | 39.4 ± 29 | 76.5 ± 24 | 28.6 ± 31 |  |  |  |  |  |  |
| COc1cc(C)ccc1O [2-Methoxy-4-methylphenol (replicate)] |  | 39.5 ± 24 |  | 51.8 ± 31 |  | 63 ± 28 |  |  |  | 45.5 ± 20 | 38.9 ± 26 | 33 ± 31 |
